Results reported in US20250352555A1, “METHOD OF INCREASING IMMUNE CELL ACTIVATION AND/OR TREATING CANCER USING DIBENZOXAZEPINONES” (VASCULAR THERAPEUTICS PTY LTD, priority 2022, published 2025).

Experiments:
[1] = system: endothelial cells; conditions: shown previously, cited from earlier work
[2] = system: CD28; assay: CD28 blockade experiment, JUN Western blot in Jurkat T cells; assay type: cell-based, human; conditions: 3 μM BT2 and 3 μM EGF, 24 h
Procedure: CD28 blockade experiments. BT2 (3 nmol), vehicle or a mix of BT2 (3 nmol) and recombinant CD28 (3 nmol, Sino biological cat. no. 90182-C08H) or EGF (3 nmol, Sigma cat. no. E9644) in 150 μl growth medium (10% FBS/RPMI 1640 medium) was preincubated for 30 min at 37° C. The mixtures were added to 12-well plates containing 850 μl of 10% FBS/RPMI 1640 medium and 0.5×10^6 Jurkat T cells/well. After 24 h, total cell lysates were prepared in RIPA buffer. Lysates (10 μg) were resolved by SDS-PAGE and transferred to Immobilon-P polyvinylidene difluoride (PVDF) membranes (Millipore, USA). Membranes were blocked with 5% skim milk and incubated with rabbit monoclonal anti-JUN (Abcam, cat. no. ab32137) antibody, mouse monoclonal β-actin antibody (Sigma-Aldrich, cat. no. A5316), This was followed by incubation with horseradish peroxidase-conjugated secondary goat anti-rabbit (DAKO, cat. no. P0448) or goat anti-mouse (DAKO, cat. no. P0447) antibody. Chemiluminescence was detected using the Western Lightning Chemiluminescence system (Thermo Scientific, USA) and ImageQuant™ LAS 4000 biomolecular imager (GE Healthcare Life Sciences, USA). Band intensity in images generated with the LAS 4000 was quantified using NIH Image J. […]

[3] = system: CD68; assay: Immunohistochemistry of B16F10 tumors (Day 17), CD68; assay type: in vivo, mouse; conditions: B16F10 tumors Day 17, 200 mg/kg i.p.
Description: Immunohistochemical staining and analyses. Rabbit monoclonal anti-CD3 (cat. no. ab16669; mouse, rat and human reactive), rabbit monoclonal anti-PD-1 (cat. no. ab214421), rabbit monoclonal anti-CD68 (cat. no. ab125212) antibodies were obtained from Abcam, rabbit monoclonal anti-phospho-ERK (Thr^202/Tyr^204) (cat. no. CST4370), rabbit monoclonal total ERK (cat. no. CST4695), antibodies were obtained from Cell Signaling Technology. Rabbit polyclonal anti-PD-L1 (cat. no. PA5-20343) antibody was obtained from ThermoFisher.
Formalin fixed, paraffin embedded sections were prepared from tumors. Heat-induced epitope retrieval was applied to all deparaffinized sections (4 μm sections on Superfrost slides) with citrate buffer, pH 6.0 for 5 min at 110° C. Sections were blocked with Dual Endogenous Enzyme Block (DAKO, S2003) for 10 min and then with 2% skim milk for 20 min. […] Integrated optical density (IOD) or area of positive staining (red chromagen) was assessed using Image-Pro Plus software (Cybernetics, Bethesda, MD, USA). Positive staining was the average of quantitation in 4-8 fields of view under 20× or 40× objectives.
Immunohistochemical analysis was performed on B16F10 tumors (Day 17) from BT2- or vehicle-treated mice with antibodies to CD68. IOD and tissue area were assessed using Image-Pro Plus and the IOD/μm^2 was determined.

[4] = system: p38; assay: Western blotting time course for p38 phosphorylation, Jurkat T cells; assay type: cell-based, human; conditions: Western blot time course
Procedure: (§1) Western blotting. Cells were treated with compounds and times indicated and total cell lysates were prepared in RIPA buffer. Lysates (10 μg) were resolved by SDS-PAGE and transferred to Immobilon-P polyvinylidene difluoride (PVDF) membranes (Millipore, USA).
(§2) Membranes were blocked with 5% skim milk and incubated with rabbit monoclonal anti-c-Jun (Abcam, cat. no. ab32137; mouse, rat and human reactive) antibody, rabbit monoclonal anti-PD-1 (Abcam, cat. no. ab214421) antibody, mouse monoclonal β-actin antibody (Sigma-Aldrich, cat. no. A5316), anti-phospho-SAPK/JNK (Thr^183/Tyr^185) (98F2) (CST, cat. no. 4671) antibody, anti-phospho-p44/42 MAPK (ERK1/2) (Thr^202/Tyr^204) (D13.14.4E) (CST, cat. no. 4370) antibody, anti-phospho-p38 MAPK (Thr^180/Tyr^182) (D3F9) (CST, cat. no. 4511) antibody, anti-SAPK/JNK antibody (CST, cat. no. 9252), anti-p44/42 MAPK (ERK1/2) (137F5) antibody (CST, cat. no. 4695), anti-p38 MAPK antibody (CST, cat. no. 9212), anti-DUSP8 antibody (Abcam, cat. no. ab198175) or anti-c-MAF (BLR045F) antibody (Abcam, cat. no. ab243901). […] Chemiluminescence was detected using the Western Lightning Chemiluminescence system (Thermo Scientific, USA) and ImageQuant™ LAS 4000 biomolecular imager (GE Healthcare Life Sciences, USA). Band intensity in images generated with the LAS 4000 was quantified using NIH Image J. […]

[5] = system: JUN; assay: Western blotting time course for JUN, Jurkat T cells; assay type: cell-based, human; conditions: Western blot time course
Procedure: as §1, §2

CCOC(=O)Nc1ccc2c(c1)C(=O)N(CC)c1ccccc1O2 [BT2, (10-ethyl-11-oxo-10,11-dihydro-dibenzo[b,f][1,4]oxazepin-2-yl)-carbamic acid ethyl ester]
ERK phosphorylation and expression of FosB/ΔFosB and VCAM-1, and VEGF ([1]; endothelial cells): inhibit
endothelial cell proliferation and migration, angiogenesis and wound repair [1]: inhibit
induction of JUN after preincubation of BT2 with EGF [2]: still induced JUN
CD68 levels in the tumors (IHC) [3]: reduced levels of CD68
levels of p38 phosphorylation [4]: no effect
time to induction of JUN at the protein level [5]: 2 to 4 h
